Experimental findings from US20080214576A1, “Topoisomerase Inhibitors and Prodrugs” (Threshold Pharmaceuticals, Inc., priority 2004, published 2008) are described below.

Read-outs that look alike come from different tables or passages of the source.

The test system of the experiment is H460 cells. The experiment in a line: Antiproliferation assay (multi-well Alamar Blue based). The class given is cell-based, human. The procedure:
To determine the effect of the compounds of the invention on cell proliferation, the antiproliferative activity of these compounds was tested in a multi-well Alamar Blue based assay (at 2 h and 3 days). Cell growth in the presence and absence of the test compound was compared, as measured by a fluorescence plate reader at excitation 550 nm and emission 590 nm (see Biosource International Inc., Tech Application Notes, Use of Alamar Blue in the measurement of Cell Viability and Toxicity, Determining IC50). […] After 24 hours, these plates were divided into 3 groups—Control group, 2 h treatment group, and 3 day treatment group. A test compound was added to each plate in the treatment groups (2 h and 3 day) at various concentration (in 50 μl of medium). In the 2 h treatment group, after 2 h the cells were rinsed to remove the test compound and incubated for 3 days, followed by staining with AlamarBlue. The cells in the 3 day treatment group were incubated for 3 days, followed by staining with AlamarBlue. In the Control group, AlamarBlue was added to the plate at (i) day 0 and (ii) day 3 and measured to establish the control reading.

In general, GI50 refers to the concentration at which growth is held to half of that of the control. On to `COc1cc2c(cc1OC)-c1nc3cc4c(cc3n1C(CCCN(C)C)N2)OCO4` (stereo not shown) [Compound 7], for which, where the note is “assay time period not stated”, the GI50 entry is reported as “not determinable” and the GI90 entry is listed as “not determinable”.
`COc1cc2c(cc1OC)n(CCN(C)C)c(=O)n1c3cc4c(cc3nc21)OCO4` [Compound 14] had a GI90 (3 day treatment, AlamarBlue, GI90 also referred to as IC90) of 1000 nM. Besides, the GI50 (Homo sapiens, NCI-H460, 72 h, 3 day treatment, AlamarBlue, GI50 also referred to as IC50, read-out: GI50) was found to be 600 nM.
